This note sets out measurements from publication PMC10097024, “Cytotoxic and Antibacterial Prenylated Acylphloroglucinols from Hypericum olympicum L” (Plants, 2023).

“And” between values parts separate entries of the source, which are not always exact repeats. Identical values can stand only once. Like-named read-outs stand apart in the source and are kept apart here.

The subject of experiment [1] is HL-60/DOX. Kind of experiment: MTT cytotoxicity test. The experiment is classed as cell-based, human. As to conditions: 72 h exposure. An excerpt: The group of human cell lines used in this study were represented by the tumor cell lines MDA-MB (breast carcinoma), EJ (urinary bladder carcinoma), K-562 (chronic myeloid leukemia), HL-60 (acute pre-myeloid leukemia), HL-60/DOX (multi-drug resistant HL-60 cell line, with over expression of MRP-1) and the non-tumorigenic cell lines HEK-293 (embryonic kidney cells) and EA.hy926 (vascular endothelial cells). EJ, HL60 and EA.hy926 were purchased from American Type Culture Collection (ATCC) (Manassas, Virginia). The other cell lines were purchased from the German Collection of Microorganisms and Cell Cultures (DSMZ GmbH, Braunschweig, Germany). HL-60/DOX cell lines were generated by periodically treating HL-60 cells with anthracyclins. The conditions in which the cell culture flasks were maintained were as follows: 37 °C in an incubator “BB 16-Function Line” Heraeus (Kendro, Hanau, Germany) with 5% CO2 humidified atmosphere. The growth medium was 90% RPMI-1640, supplemented with 10% FBS and 2 mM L-glutamine. MDA-MB-231, EJ, HEK-293 and EA.hy926 cells were maintained as adherent monolayer cultures while all the other (leukemic) cell lines were grown as suspension type cultures. Cells were maintained in log phase: the adherent cell lines were subjected to trypsinization 1–2 times a week and the leukemic cell lines were passaged 2–3 times a week by removing of part of the cellular suspension and substituting it with fresh medium.
The evaluation of cytotoxic activity was conducted by MTT test as described previously. The median inhibitory concentration (IC50) values which represent the half-maximal concentration values were calculated from sigmoidal concentration–response curves, using non-linear regression analysis (Curve fit, GraphPad Prizm 5.0 software, GraphPad Software Inc., San Diego, CA, USA). The selectivity index was calculated as the ratio of the IC50 of a non-cancerous line (HEK-293 or EA.hy926) and the average IC50 of all chemosensitive tested tumor cell lines (x). Therefore, SI=IC50HEK-293/IC50x . The resistance index (RI) was calculated as the ratio of IC50 of the multi-drug resistant HL-60/DOX cell line and the IC50 of its parent cell line: RI=IC50HL-60/DOX/IC50HL-60 .

In experiment [2] the test system is Enterococcus faecalis (ATCC 29212). The experiment is described as follows: MIC by broth microdilution. The experiment is classed as cell-based. An excerpt:
(§1) The Gram-positive bacterial strains that were examined for susceptibility were: Staphylococcus aureus (ATCC 29213, American Type Cell Culture Collection, Manassas, VA, USA), Staphylococcus aureus—MRSA (NBIMCC 8327-resistant to methicillin and oxacillin, National Bulgarian Collection for Industrial Microorganisms and Cell Cultures, Sofia, Bulgaria), Enterococcus faecalis (ATCC 29212) and Streptococcus pyogenes (SAIMC 10535, Collection of the Stephan Angeloff Institute of Microbiology, Sofia, Bulgaria). The only Gram-negative bacterial strain used was Escherichia coli (ATCC 35218). Bacteria were maintained in Trypticase Soy Broth (TSB, Himedia, India) at 37 °C, aerobic conditions. For the experiments brain heart infusion (BHI) broth (#M210 HiMedia, Mumbai, India) was used for E. faecalis and S. pyogenes and Mueller Hinton broth (MHB, #M0405B) from Thermo Scientific-Oxoid (Basingstoke, UK)—for all other strains.
(§2) BMD was performed according to the following protocol of ISO 20776/1-2006 [117]. A bacterial suspension with density of 10^8 CFU/mL (0.5 McFarland standard, OD600) was prepared from an overnight grown liquid bacterial culture homogenized over vortex and brought to a working bacterial suspension (WBS) with concentration of 5×10^5 CFU/mL by being diluted 200× with MHB or BHI broth and homogenized over vortex again. Two-fold serial dilutions of compounds 3–5 was prepared in 96-well round bottom plates to a volume of 50 μL and final range of concentrations 100–0.2 μg/mL. Stock solutions were dissolved in ethanol and MHB was used as diluent and as test for absence of contamination. Three wells were left as blank samples and 6 wells were left for control samples. An equivalent volume (50 μL) of the WBS was inoculated to each well in the aforementioned plates achieve final bacterial density of […] with the exception of the blank wells. After 18–24 h incubation under aerobic standardized conditions at 37 °C the plates were examined. […] Antibiotics dissolved in sterile distilled water were used as referent positive controls. They were penicillin G (PEN, #B0500000, Merck KGaA, Darmstadt, Germany) for E. faecalis and S. pyogenes, gentamicin (GEN, #15750-037, 50 mg/mL, Gibco, Paisley, UK) for all bacteria except S. pyogenes and ciprofloxacin (CIP, Ciproflav:10 mg/mL, Polfa S.A. Warsaw Pharmaceutical Works, Starogard Gdanski, Poland) for E. faecalis. The range of concentrations were 0.004–2 mg/L for PEN, 0.008–4 mg/L for GEN and 0.005–2 mg/L for CIP. The requirements of EUCAST (European Committee on Antimicrobial Susceptibility Testing) for their MICs were followed for discussing the results. In the end the plates which contained active agents were subjected to assessment of the dehydrogenase activity of the bacteria.

The test system of experiment [3] is Staphylococcus aureus (ATCC 29213). Kind of experiment: MIC by broth microdilution. The experiment is classed as cell-based.
From the text: as §1, §2

In experiment [4] the test system is Staphylococcus aureus—MRSA (NBIMCC 8327). Kind of experiment: MIC by broth microdilution. It counts as cell-based.
From the text: as §1, §2
For orientation: Dilution methods test growth across graded concentrations, often in twofold steps.

Experiment [5] concerns Streptococcus pyogenes (SAIMC 10535). Kind of experiment: MIC by broth microdilution. The experiment is classed as cell-based.
From the text: as §1, §2

Experiment [6] has as its system MRSA biofilm. Kind of experiment: Biofilm assay of MRSA. The experiment is classed as cell-based, Staphylococcus aureus. As to conditions: for Absorbance at 550 nm of the MRSA biofilm (crystal violet): replicate wells; for IC50: read-out: MBIC50 (median biofilm inhibitory concentration).
From the text: as §1
The bacterial inoculum was prepared as described above for the BMD. […] After that an optimized protocol was applied for the visualization of the biofilm. Firstly, the supernatant was removed, and planktonic cells were removed by washing the wells carefully 3× with 200 μL/well PBS. Then, fixing of the remaining cells was performed by incubation with 200 μL/well methanol for 15 sec at room temperature. The methanol was removed and the plate was dried by air for 5–10 s. Next, 50 μL of 2% Hucker crystal violet was poured into the wells and excess stain was rinsed off by running tap water. After that, the cells were air dried and the biofilm formation in the wells was documented microscopically (40×, Inverted trinocular biological microscope model BIB-100 and digital camera B-CAM16, application software B-View, Boeco, Hamburg, Germany). Then the dye bound to biofilm in the wells was re-solubilized with 160 μL 33% acetic acid and the absorbance of each well was measured at 550 nm with lid (Table S1 in Supplementary Materials). […] MBIC were assessed visually and MBIC50 were calculated by GraphPad Prism software with a mathematical model for a dose–response relationship (variable slope) after normalization of the data and logarithmic transformation of the applied concentrations (X-data).

Setting [7] is: MRSA biofilm, assessed visually.
Setting [8] is: Staphylococcus aureus, MRSA biofilm, interval in brackets.
Setting [9] is: MRSA biofilm, interval in brackets.

One may read the MIC as the least concentration at which growth counts as inhibited. Take `CC(C)=CCC[C@]1(C)[C@@H](CC=C(C)C)C[C@H]2C(=O)[C@]1(C(=O)C(C)C)C(=O)C(CC=C(C)C)=C2O` [Compound 5, (1S,5R,7S,8R)-4-hydroxy-1-isobutyryl-8-methyl-3,7-bis(3-methylbut-2-en-1-yl)-8-(4-methylpent-3-en-1-yl)bicyclo[3.3.1]non-3-ene-2,9-dione]: the IC50 in experiment [1] (Homo sapiens) was 1.71 ± 0.2 µM; in experiment [6] (setting [8]), 0.05 µg/mL and 120 nM. Moreover, the minimum inhibitory concentration (MIC) was 4 µg/mL and 8.53 µM in experiment [2] (ATCC29212, read-out: MIC); 1.00 mg/L in experiment [3]; 0.78 µg/mL to 2 µg/mL and 1.57 µM to 4.14 µM in experiment [3] (ATCC29213, Staphylococcus aureus, read-out: MIC); 2.14 µM in experiment [3] (read-out: MIC); 1.00 mg/L in experiment [4]; 1 µg/mL and 2.14 µM in experiment [4] (read-out: MIC). Besides, the minimum inhibitory concentration (MIC) in experiment [5] (read-out: MIC) was 4 µg/mL and 8.53 µM. Further, the “Absorbance at 550 nm of the MRSA biofilm (crystal violet)” value (“Absorbance at 550 nm” for short) in experiment [6] (0.063 mg/L) is 0.978 and 1.044; in experiment [6] (0.125 mg/L), 0.926 and 0.790; in experiment [6] (0.25 mg/L) it was 0.592 and 0.502; in experiment [6] (0.5 mg/L), 0.534 and 0.342; in experiment [6] (1 mg/L), 0.332 and 0.406. This compound also registered an MBIC in experiment [6] (MRSA biofilm) of 0.5 mg/L. Further, the “MBIC (minimum biofilm inhibitory concentration)” value in experiment [6] (MRSA biofilm) was 1.07 µM; in experiment [6] (setting [7]), 0.5 mg/L.

On to “(1R,5R,7S,8R)-4-hydroxy-5,8-dimethyl-3,7-bis(3-methylbut-2-en-1-yl)-1-(2-methylbutanoyl)-8-(4-methylpent-3-en-1-yl)bicyclo[3.3.1]non-3-ene-2,9-dione [Compound 4]”, for which the IC50 in experiment [1] is 12.2 ± 3.2 µM; in experiment [6] (setting [9]) it was 1.35 µM. Further, the MIC in experiment [2] was found to be 12.5 mg/L; in experiment [2] (read-out: MIC), 25.17 µM; in experiment [3], 0.78 mg/L; in experiment [3] (read-out: MIC) it was 1.57 µM; in experiment [4] it was 12.5 mg/L; in experiment [4] (read-out: MIC), 25.17 µM. Besides, the MIC in experiment [5] amounted to 12.50 mg/L; in experiment [5] (read-out: MIC) it was 25.17 µM. The “Absorbance at 550 nm” value is 0.324 and 0.229 and 0.230 in experiment [6] (0.78 mg/L); 0.248 and 0.194 and 0.193 in experiment [6] (1.56 mg/L); 0.264 and 0,195 and 0,139 in experiment [6] (3.13 mg/L); 0.184 and 0.121 and 0.092 in experiment [6] (6.25 mg/L); 0.152 and 0.150 and 0.072 in experiment [6] (12.5 mg/L). Also, the entries for the “MBIC (minimum biofilm inhibitory concentration)” value in experiment [6] (MRSA biofilm) and in experiment [6] (setting [7]) were 25.17 µM and 12.5 mg/L, respectively. Further, the “MBIC50 (median biofilm inhibitory concentration)” value in experiment [6] (setting [9]) is given as 0.67 (0.39 to 1.17) mg/L.

In the case of `CC(C)=CCC[C@]1(C)[C@@H](CC=C(C)C)C[C@]2(C)C(=O)C(CC=C(C)C)=C(O)[C@@]1(C(=O)C(C)C)C2=O` [Compound 3, hyperpolyphyllirin/hyperibine J], the IC50 was 1.28 ± 0.2 µM in experiment [1] (Homo sapiens); 0.17 µg/mL and 350 nM in experiment [6] (setting [8]). Besides, the minimal inhibitory concentration (MIC) was 8 µg/mL and 16.6 µM in experiment [2] (ATCC29212, read-out: MIC); 2.00 mg/L in experiment [3]; 4.14 µM in experiment [3] (read-out: MIC); 8 µg/mL and 16.6 µM in experiment [4] (read-out: MIC); 31 µg/mL and 64.2 µM in experiment [5] (read-out: MIC). Moreover, the “Absorbance at 550 nm” value in experiment [6] (0.125 mg/L) is 0.347 and 0.336; in experiment [6] (0.25 mg/L), 0.376 and 0.403; in experiment [6] (0.5 mg/L), 0.276 and 0.394; in experiment [6] (1 mg/L), 0.249 and 0.184; in experiment [6] (2 mg/L), 0.353 and 0.444; in experiment [6] (4 mg/L) it was 0.110 and 0.099. Besides, the MBIC in experiment [6] (MRSA biofilm) was determined as 4 mg/L. In addition, the “MBIC (minimum biofilm inhibitory concentration)” value came to 8.29 µM in experiment [6] (MRSA biofilm) and 4.0 mg/L in experiment [6] (setting [7]).
